Test results taken from patent publication US20030065039A1, “Biologically active 1,3-bis-aromatic-prop-2-en-1-ones, 1,3-bis-aromatic-propan-1-ones, and 1,3-bis-aromatic-prop-2-yn-1-ones” (Statens Serum Institute, priority 1997, published 2003).
Where two headings read alike, the source gives them in different places.

How the values were obtained:
Type in all cases: cell-based
TNF-α = TNF-α production by human peripheral blood mononuclear cells, culture supernatant (ELISA); conditions: for inhibition at 12.5 µg/mL / inhibition at 1 µg/mL / inhibition at 5 µg/mL / inhibition at 10 µg/mL / inhibition at 20 µg/mL / inhibition at 1.25 µg/mL / inhibition at 6.25 µg/mL: Homo sapiens, PBMC
Description: Cells: Peripheral blood mononuclear cells obtained from healthy individuals. The cells were separated by a conventional method lymphoprep) and suspended in RMPI 1640 containing 5% human serum.
Stimulation of cytokine-release from human mononuclear cells: Human peripheral blood mononuclear cells from Danish donors were suspended in 1-10% (v/v) human serum in RPMI 1640 and adjusted to 2×10^6 cells per ml. 0.1 ml volumes were then dispensed into wells of 96-well microtiter plates. […] In some experiments cells were preincubated with drugs for 2 hrs before addition of stimulation antigens. The cultures were incubated overnight for TNF-α and IL-6 assays.
Supernatants were collected and assayed for TNF-α, IL-1α and IL-6 by ELISA procedures (Jakobsen et al., 1993, Fomsgaard et al., 1988, Hansen et al., 1991) with the following modifications. ELISA Maxisorp plates (Nunc, Roskilde, Denmark) were coated for 24 hrs at 4 C with 100 μl per well of 2.5 μg/ml rabbit polyclonal IgG to human recombinant TNF, IL-1α or IL-6 in 100 mM sodiumhydrogencarbonate. Non-attached sites were blocked for 1 h by 200 μl per well of 2% human serum slbumin in PBS (1 h at 37° C.), and the wells were washed 4 times in 2.5% NaCl, 0.1% Tween 20 (Merck, Darmstadt, Germany). This washing procedure was done after each of the following incubating steps:
1) 100 μl culture supernatants made to 50% (v/v) in incubation buffer (4% (v/v) normal rabbit serum, DAKO code X902), 1% polyethylene glycol (MW 6,000), 2.5% NaCl, 0.1% Tween 20 in phosphate buffered saline (PBS) were incubated 2 hrs at 37° C., dilutions of native as well as recombinant cytokine standards in the same incubation buffer were asssayed in parallel with the tested supernatants,
2) 100 μl per well of biotinilated rabbit antibodies to recombinant TNF-α, IL-1α or IL-6 (1.5 μg/ml in 0.5% human serum albumin, 0.1% Tween 20 in PBS) were added at 37° for 2 hrs,
3) […] per well of a 1:1000 dilution of streptavidin-peroxidase (Amersham, UK), at room temperature for 30 min.
Enzyme activities were quantitated after addition of 100 μl per well of 0.67 mg/ml 1,2-phenyldiamine hydrochloride (DAKO) dissolved in 100 mM citric acid-phosphate buffer, pH 5.0 containing 0.015% (v/v) H2O2. The reactions were stopped by adding 50 μl per well of 2.5 M H2SO4, and the optical densities are measured in an ELISA scanner at 490 nm against a test reference at 620 nm.
Assay: The compounds were prepared as stock solution at a concentration of 1 mg/ml in medium containing 10% DMSO. The dilutions were made in medium. The cells were stimulated with either SPAG (a malaria antigen TNF-inducer) or bacterial LPS. The supernatant of cell cultures were assayed for TNF-α using a commercial ELISA kit.

Leishmania promastigotes = Leishmania promastigotes Assay; conditions: promastigotes, 3H-thymidine uptake, read-out: Leishmania IC50 ± SD
Summary of the method: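 L. major (WHO Iran vaccine strain) and L. donovani MHOM/KE/85/NLB 274 promastigotes (3×10^6/ml, day 3 and 6 cultures) exposed to compound 2 h at 26 °C, then 3H-thymidine 18 h; incorporation counted by scintillation. Microscopic counts and flagellar motility also assessed.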

Plasmodium falciparum = Plasmodium falciparum Assay; conditions: 3-H-hypoxanthine incorporation, 48 hours, read-out: Plasmodium IC50 ± SD
Summary of the method: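 Parasitized erythrocytes (~1% parasitemia, 5×10^8/ml) cultured 48 h in RPMI with test compound, with 3H-hypoxanthine added for the last 24 h. Growth inhibition read as 3H-hypoxanthine incorporation into parasite DNA by liquid scintillation; uninfected and untreated infected cultures run in parallel.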

human lymphocytes = test: Lymphocyte Proliferation Assay; conditions: PHA provoked proliferation of human lymphocytes, read-out: Lymphocytes IC50 ± SD
Summary of the method: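 Ficoll-isolated human blood mononuclear cells (0.63×10^5/ml) in RPMI 1640 with 5% FCS were cultured in triplicate with test compound and PHA or PPD for 3 or 7 days. Proliferation measured by ^3H-thymidine incorporation over the final 24 h; triplicate median recorded.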

[1] = Experiment 1, LPS, 12.5 μg/ml, Control 1.17
[2] = Experiment 1, LPS, 25 μg/ml, Control 1.17
[3] = Experiment 1, LPS, 50 μg/ml, Control 1.17
[4] = Experiment 1, LPS, 100 μg/ml, Control 1.17
[5] = Experiment 1, SPAG, 12.5 μg/ml, Control 3.73
[6] = Experiment 1, SPAG, 25 μg/ml, Control 3.73
[7] = Experiment 1, SPAG, 50 μg/ml, Control 3.73
[8] = Experiment 1, SPAG, 100 μg/ml, Control 3.73

Compound: C=CC(C)(C)c1cc(/C=C/C(=O)c2ccc(O)cc2)c(OC)cc1O [Licochalcone A]
- percentage inhibition of TNF-α production (TNF-α; Table 1, LPS 1:1000, drug 1 μg/ml): 0%
- percentage inhibition of TNF-α production (TNF-α; Table 1, LPS 1:1000, drug 5 μg/ml): 0%
- percentage inhibition of TNF-α production (TNF-α; Table 1, LPS 1:1000, drug 10 μg/ml): 40%
- percentage inhibition of TNF-α production (TNF-α; Table 1, LPS 1:1000, drug 20 μg/ml, preincubated 2 hrs): 81%
- percentage inhibition of TNF-α production (TNF-α; Table 1, SPAG 1:12.5, drug 1 μg/ml): 0%
- percentage inhibition of TNF-α production (TNF-α; Table 1, SPAG 1:12.5, drug 5 μg/ml): 13%
- percentage inhibition of TNF-α production (TNF-α; Table 1, SPAG 1:12.5, drug 10 μg/ml): 44%
- percentage inhibition of TNF-α production (TNF-α; Table 1, SPAG 1:12.5, drug 20 μg/ml, preincubated 2 hrs): 97%
- percentage inhibition of TNF-α production (TNF-α; Table 2, LPS 1:1000, drug 1.25 μg/ml): 4%
- percentage inhibition of TNF-α production (TNF-α; Table 2, LPS 1:1000, drug 6.25 μg/ml): 3%
- percentage inhibition of TNF-α production (TNF-α; Table 2, LPS 1:1000, drug 12.5 μg/ml): 38%
- percentage inhibition of TNF-α production (TNF-α; Table 2, LPS 1:1000, drug 20 μg/ml, preincubated 2 hours): 54%
- percentage inhibition of TNF-α production (TNF-α; Table 2, SPAG 1:12.5, drug 1.25 μg/ml): 54%
- percentage inhibition of TNF-α production (TNF-α; Table 2, SPAG 1:12.5, drug 6.25 μg/ml): 82%
- percentage inhibition of TNF-α production (TNF-α; Table 2, SPAG 1:12.5, drug 12.5 μg/ml): 94%
- percentage inhibition of TNF-α production (TNF-α; Table 2, SPAG 1:12.5, drug 20 μg/ml, preincubated 2 hours): 100%
- IC50 (Leishmania promastigotes): 13 ± 1 µM
- IC50 (Plasmodium falciparum): 5.6 µM
- IC50 (human lymphocytes): 48 ± 5 µM

Compound: COc1cc(/C=C/C(=O)c2ccc(C3CCCCC3)cc2)cc(OC)c1 [PH104, 3,5-dimethoxy-4′-cyclohexylchalcone]
- TNF-α production (OD values) (TNF-α; [1]): 1.15 OD
- TNF-α production (OD values) (TNF-α; [2]): 0.59 OD
- TNF-α production (OD values) (TNF-α; [3]): 0.41 OD
- TNF-α production (OD values) (TNF-α; [4]): 0.31 OD
- TNF-α production (OD values) (TNF-α; [5]): 0.93 OD
- TNF-α production (OD values) (TNF-α; [6]): 0.13 OD
- TNF-α production (OD values) (TNF-α; [7]): 0.03 OD
- TNF-α production (OD values) (TNF-α; [8]): 0.01 OD
- TNF-α production (OD values) (TNF-α; Experiment 2, LPS, 1.562 μg/ml, Control 2.06): 1.54 OD
- TNF-α production (OD values) (TNF-α; Experiment 2, LPS, 3.125 μg/ml, Control 2.06): 1.41 OD
- TNF-α production (OD values) (TNF-α; Experiment 2, LPS, 6.25 μg/ml, Control 2.06): 1.08 OD
- TNF-α production (OD values) (TNF-α; Experiment 2, LPS, 12.5 μg/ml, Control 2.06): 0.91 OD
- TNF-α production (OD values) (TNF-α; Experiment 2, SPAG, 1.562 μg/ml, Control 2.28): 2.47 OD
- TNF-α production (OD values) (TNF-α; Experiment 2, SPAG, 3.125 μg/ml, Control 2.28): 2.44 OD
- TNF-α production (OD values) (TNF-α; Experiment 2, SPAG, 6.25 μg/ml, Control 2.28): 1.50 OD
- TNF-α production (OD values) (TNF-α; Experiment 2, SPAG, 12.5 μg/ml, Control 2.28): 0.43 OD
- inhibition at 12.5 µg/mL (TNF-α; concentration of 12.5 μg/ml, read-out: inhibition of the production of TNF-α): ~75%
- inhibition of the production of TNF-α (TNF-α; at higher concentrations than 12.5 μg/ml): greater than 75%
- IC50 (Leishmania promastigotes; Leishmania): 31 ± 2 µM
- IC50 (Plasmodium falciparum; Plasmodium falciparum): 15 µM
- IC50 (human lymphocytes; Lymphocyte): 39 ± 2 µM

Compound: COc1cc(/C=C/C(=O)c2ccc([N+](=O)[O-])cc2)cc(OC)c1 [PH105, 4′-nitro-3,5-dimethoxychalcone]
- inhibitory effect on TNF-α production (TNF-α): no or very little inhibitory effect
- TNF-α production (OD values) (TNF-α; [1]): 1.07 OD
- TNF-α production (OD values) (TNF-α; [2]): 1.13 OD
- TNF-α production (OD values) (TNF-α; [3]): 1.69 OD
- TNF-α production (OD values) (TNF-α; [4]): 0.99 OD
- TNF-α production (OD values) (TNF-α; [5]): 1.94 OD
- TNF-α production (OD values) (TNF-α; [6]): 2.00 OD
- TNF-α production (OD values) (TNF-α; [7]): 4.00 OD
- TNF-α production (OD values) (TNF-α; [8]): 2.3 OD
- IC50 (Leishmania promastigotes; Leishmania): 16 ± 1 µM
- IC50 (human lymphocytes; Lymphocyte): 20 ± 1 µM

Compound: C=CCOc1ccc(C(=O)/C=C/c2cc(OC)cc(OC)c2)cc1 [SBC-35ma, 3,5-dimethoxy-4′-allyloxychalcone]
- inhibition at 1 µg/mL (TNF-α; Table 1, LPS 1:1000, drug 1 μg/ml, read-out: percentage inhibition of TNF-α production): 0%
- inhibition at 5 µg/mL (TNF-α; Table 1, LPS 1:1000, drug 5 μg/ml, read-out: percentage inhibition of TNF-α production): 1%
- inhibition at 10 µg/mL (TNF-α; Table 1, LPS 1:1000, drug 10 μg/ml, read-out: percentage inhibition of TNF-α production): 56%
- inhibition at 20 µg/mL (TNF-α; Table 1, LPS 1:1000, drug 20 μg/ml, preincubated 2 hrs, read-out: percentage inhibition of TNF-α production): 73%
- inhibition at 1 µg/mL (TNF-α; Table 1, SPAG 1:12.5, drug 1 μg/ml, read-out: percentage inhibition of TNF-α production): 0%
- inhibition at 5 µg/mL (TNF-α; Table 1, SPAG 1:12.5, drug 5 μg/ml, read-out: percentage inhibition of TNF-α production): 0%
- inhibition at 10 µg/mL (TNF-α; Table 1, SPAG 1:12.5, drug 10 μg/ml, read-out: percentage inhibition of TNF-α production): 55%
- inhibition at 20 µg/mL (TNF-α; Table 1, SPAG 1:12.5, drug 20 μg/ml, preincubated 2 hrs, read-out: percentage inhibition of TNF-α production): 100%
- inhibition at 1.25 µg/mL (TNF-α; Table 2, LPS 1:1000, drug 1.25 μg/ml, read-out: percentage inhibition of TNF-α production): 2%
- inhibition at 6.25 µg/mL (TNF-α; Table 2, LPS 1:1000, drug 6.25 μg/ml, read-out: percentage inhibition of TNF-α production): 23%
- inhibition at 12.5 µg/mL (TNF-α; Table 2, LPS 1:1000, drug 12.5 μg/ml, read-out: percentage inhibition of TNF-α production): 28%
- inhibition at 20 µg/mL (TNF-α; Table 2, LPS 1:1000, drug 20 μg/ml, preincubated 2 hours, read-out: percentage inhibition of TNF-α production): 33%
- inhibition at 1.25 µg/mL (TNF-α; Table 2, SPAG 1:12.5, drug 1.25 μg/ml, read-out: percentage inhibition of TNF-α production): 87%
- inhibition at 6.25 µg/mL (TNF-α; Table 2, SPAG 1:12.5, drug 6.25 μg/ml, read-out: percentage inhibition of TNF-α production): 99%
- inhibition at 12.5 µg/mL (TNF-α; Table 2, SPAG 1:12.5, drug 12.5 μg/ml, read-out: percentage inhibition of TNF-α production): 100%
- inhibition at 20 µg/mL (TNF-α; Table 2, SPAG 1:12.5, drug 20 μg/ml, preincubated 2 hours, read-out: percentage inhibition of TNF-α production): 100%
- IC50 (Leishmania promastigotes; Leishmania): 27 ± 2 µM
- IC50 (human lymphocytes; Lymphocyte): 25 ± 2 µM
